“Also recorded” adds a separate entry of the source. Read-outs that look alike come from different tables or passages of the source.
Legend:
ScinGOBP2 = ScinGOBP2 (Semiothisa cinerearia, UniProt A0A889XLB8); test: Fluorescence-based competitive binding assay with 1-NPN probe
Procedure: A total of 27 volatile compounds were selected for a fluorescence-based competitive binding assay based on previously reported information for S. cinerearia host plants. This experiment was performed on a spectrofluorometer F-380 (Tianjin, China) using slits of 10 nm and a light path of 1 cm. The fluorescent probe N-phenyl-1-naphthylamine (1-NPN) was excited at 337 nm, and emissions were recorded between 390 and 530 nm. The affinity of 1-NPN for ScinGOBP2 was measured by titrating a 2 μM solution of the protein with aliquots of 1 mM 1-NPN in methanol to final concentrations of 1–16 μM. The dissociation constants of 1-NPN and the proteins were calculated using the software GraphPad Prism 8.0. Competitive binding was measured via the titration of the protein/1-NPN (both at 2 μM) mixture by adding aliquots of 1 mM of methanol solution of ligand to final concentrations of 2–30 μM. Dissociation constants of the competitors were calculated using the equation KD = IC50/(1 + [1-NPN]/K1-NPN), where IC50 represents the ligand concentration achieving a 50% decrease in 1-NPN’s initial fluorescence intensity, [1-NPN] represents the free concentration of 1-NPN, and K1-NPN represents the dissociation constant of the complex ScinGOBP2/1-NPN.

female S. cinerearia = test: Two-choice oviposition preference assay; type: in vivo, Semiothisa cinerearia; conditions: 100 μg in paraffin oil vs solvent control; eggs counted after 48 h
Procedure: The oviposition preference of female S. cinerearia for the ScinGOBP2 ligands was assessed in a screened enclosure (length/width/height = 86 cm:46 cm:48 cm). To ensure mating of all the female moths, newly emerged males and females were cohabitated in a rearing enclosure (30 cm × 30 cm × 30 cm) at a sex ratio of 1:2 for a period of 2 days. Mated females for subsequent experiments were randomly selected from this enclosure. Each screened cage housed five gravid females. For adult nourishment, a small Petri dish containing 10% honey solution was positioned at the cage’s base center. Test compounds (100 μg, diluted in paraffin oil) or the solvent control (paraffin oil) were applied to a cotton ball, which was then affixed to the opposite inner sides of the cage. After 48 h, the number of eggs deposited on the gauze on both the treatment and control sides was counted. The oviposition preference index was determined using the formula (T − C)/(T + C), where T represents the egg count on the treatment side and C represents the count on the control side. Each experiment was replicated eight times.

S. cinerearia antennae = test: Electroantennogram (EAG) recordings; parameters: species or system Semiothisa cinerearia; conditions: 10 μL of 10 μg/μL in paraffin oil, control subtracted, n = 12
Procedure: Electroantennogram recordings were carried out to measure the antennal responses of S. cinerearia to ScinGOBP2 ligands. The antennae of S. cinerearia adults were carefully removed from the base, and the tips were carefully cut off. The prepared antennae were affixed to electrode holders using conductive electrode gel. Subsequently, a 10 μL aliquot of the test compound (10 μg/μL, diluted in paraffin oil) was applied to a strip of filter paper. This strip was then placed into a 1000 µL pipette tip, serving as a cartridge. The test cartridge was connected to a stimulus controller (CS-55; Syntech, Kirchzarten, Germany) that delivered a 0.5 s stimulus every 30 s at a constant flow rate of 10 mL/s. Antennal signals were recorded using an EAG Pro system (Syntech). In all the experiments, antennae were exposed to a solvent control (paraffin oil) at the beginning and end of a series of sample measurements. Test stimuli were presented in a randomized sequence, interspersed between two control puffs. The EAG responses to the test odors were adjusted by subtracting the mean amplitude of the two control signals. EAG responses were measured from a cohort of twelve insects, each with different antennae (n = 12).

AipsGOBP2 = test system: AipsGOBP2; parameters: method as in PMID 29778539; conditions: cited from earlier work
OachGOBP2 = test system: OachGOBP2; parameters: method as in PMID 36975901; conditions: cited from earlier work
[1] = KD, competitive displacement of 1-NPN, protein/1-NPN both at 2 μM, ligand 2–30 μM, KD = IC50/(1 + [1-NPN]/K1-NPN), mean ± SE
[2] = competitive displacement of 1-NPN, protein/1-NPN both at 2 μM, ligand 2–30 μM, KD = IC50/(1 + [1-NPN]/K1-NPN), mean ± SE, read-out: KD

ScinGOBP2, sequence (A0A889XLB8 entry or part of it): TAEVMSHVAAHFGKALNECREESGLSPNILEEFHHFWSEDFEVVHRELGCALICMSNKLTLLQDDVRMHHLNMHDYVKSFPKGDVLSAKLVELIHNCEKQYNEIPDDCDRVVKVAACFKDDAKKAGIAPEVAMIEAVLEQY

c1ccc(Nc2cccc3ccccc23)cc1 [1-NPN, N-phenyl-1-naphthylamine, reference compound]
Kd (ScinGOBP2; dissociation constant (KD) for the ScinGOBP2/1-NPN complexes, direct titration of 2 μM protein with 1-NPN 1–16 μM): 2.27 µM

C=CCCCCCCC [1-Nonene]
Kd (ScinGOBP2; [1]): 12.2 ± 0.44 µM
Kd (ScinGOBP2; competitive displacement of 1-NPN, protein/1-NPN both at 2 μM, ligand 2–30 μM, KD = IC50/(1 + [1-NPN]/K1-NPN), mean ± SE): < 15 µM
Oviposition preference of mated females (female S. cinerearia): deter S. cinerearia from ovipositing; also recorded: marked repellent behavioral responses

CCCCCCCCCC=O [Decanal]
Kd (ScinGOBP2; [2]): 5.07 ± 0.27 µM
Oviposition preference of mated females (female S. cinerearia): significant preference for laying eggs; also recorded: significant attractant behavioral responses
EAG mean response value, males (S. cinerearia antennae; male antennae): 0.063 mV

C=C(C)[C@H]1CC=C(C)CC1 [Dipentene]
Kd (ScinGOBP2; [1]): 14.9 ± 0.77 µM
Oviposition preference of mated females (female S. cinerearia): deter S. cinerearia from ovipositing; also recorded: marked repellent behavioral responses
EAG mean response value, females (S. cinerearia antennae; female antennae): 0.086 mV

CC(=O)CC/C=C(\C)CCC=C(C)C [Geranyl acetone]
Kd (ScinGOBP2; [2]): 2.21 ± 0.17 µM
Oviposition preference of mated females (female S. cinerearia): deter S. cinerearia from ovipositing; also recorded: marked repellent behavioral responses

CC/C=C\CCOC(=O)CCC [cis-3-Hexenyl butyrate]
Kd (ScinGOBP2; [2]): 14.17 ± 0.04 µM
Oviposition preference of mated females (female S. cinerearia): significant preference for laying eggs; also recorded: significant attractant behavioral responses

CC/C=C\CCOC(=O)CCCC [cis-3-Hexenyl n-valerate]
Kd (ScinGOBP2; [2]): 6.55 ± 0.18 µM
Oviposition preference of mated females (female S. cinerearia): significant preference for laying eggs; also recorded: significant attractant behavioral responses

CC/C=C\CCO [cis-3-hexen-1-ol]
binding affinity for AipsGOBP2 (AipsGOBP2): high binding affinity

CCCCOC(=O)c1ccccc1C(=O)OCCCC [dibutyl phthalate]
binding affinity for AipsGOBP2 (AipsGOBP2): high binding affinity

CC(C)=CCC/C(C)=C/CC/C(C)=C/CO [farnesol]
binding affinity for OachGOBP2 (OachGOBP2): high binding affinity

CCCCCCCC/C=C\CCCCCCCC(=O)O [oleic acid]
binding affinity for AipsGOBP2 (AipsGOBP2): high binding affinity

CC1=CCC2CC1C2(C)C (stereo not drawn) [α-Pinene]
Kd (ScinGOBP2; [1]): 9.41 ± 0.28 µM
Oviposition preference of mated females (female S. cinerearia): significant preference for laying eggs; also recorded: significant attractant behavioral responses

CC1=CC[C@H](C(C)C)C=C1 [α-phellandrene]
binding affinity for OachGOBP2 (OachGOBP2): high binding affinity

C=C1CCC2CC1C2(C)C (stereo not drawn) [β-Pinene]
Kd (ScinGOBP2; [1]): 13.2 ± 0.19 µM
Oviposition preference of mated females (female S. cinerearia): deter S. cinerearia from ovipositing; also recorded: marked repellent behavioral responses

C=C1CC/C=C(\C)CC[C@@H]2[C@@H]1CC2(C)C [β-caryophyllene]
binding affinity for AipsGOBP2 (AipsGOBP2): high binding affinity

Reference: PMC11048283 (Biology, 2024)
